Source: paper PMC2850566 (Biochemical pharmacology, 2010)
Like-named read-outs stand apart in the source and are kept apart here.

Legend:
human β2-AR = human β2-AR (Homo sapiens, UniProt P07550); conditions: plotted from previously reported ΔH° and TΔS°; cited from earlier work
β2-AR = conditions: cardiomyocytes; cited from earlier work
rat cardiomyocyte [1] = conditions: read-out: EC50cardio; rat cardiomyocyte contractility; cited from earlier work
rat cardiomyocyte [2] = test: Rat cardiomyocyte contractility model; type: cell-based; conditions: read-out: EC50cardio, authors' unpublished data

Sequence of human β2-AR (P07550 whole entry): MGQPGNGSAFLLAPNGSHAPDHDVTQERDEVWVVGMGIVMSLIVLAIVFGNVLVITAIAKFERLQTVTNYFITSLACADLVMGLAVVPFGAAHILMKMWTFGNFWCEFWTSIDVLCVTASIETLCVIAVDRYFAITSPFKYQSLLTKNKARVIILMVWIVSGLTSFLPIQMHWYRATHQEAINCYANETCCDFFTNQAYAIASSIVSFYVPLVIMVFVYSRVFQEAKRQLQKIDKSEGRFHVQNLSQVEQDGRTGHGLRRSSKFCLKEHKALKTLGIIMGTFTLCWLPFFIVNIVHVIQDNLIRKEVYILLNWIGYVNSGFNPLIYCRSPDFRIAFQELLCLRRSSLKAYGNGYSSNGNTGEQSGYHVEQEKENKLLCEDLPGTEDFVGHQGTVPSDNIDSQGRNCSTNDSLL

| SMILES | Quadrant in the TΔS° and ΔH° plot (human β2-AR) | β2-AR coupling preference for G-proteins (β2-AR) | EC50 (rat cardiomyocyte [1]) | EC50 (rat cardiomyocyte [2]) |
| --- | --- | --- | --- | --- |
| CC(Cc1ccc(O)cc1)NCC(O)c1cc(O)cc(O)c1 (racemic) [rac-fenoterol] | enthalpy-entropy driven process | – | – | – |
| CC(Cc1ccc(O)cc1)NCC(O)c1cc(O)cc(O)c1 [(R,R')-fenoterol] | – | preferentially activates Gs signaling | 0.073 µM | – |
| C[C@@H](Cc1ccc(O)cc1)NC[C@H](O)c1cc(O)cc(O)c1 [(R,S')-fenoterol] | – | – | 0.575 µM | – |
| C[C@H](Cc1ccc(O)cc1)NC[C@@H](O)c1cc(O)cc(O)c1 [(S,R')-fenoterol] | – | activates both Gs and Gi proteins | 2.34 µM | – |
| CC(Cc1ccc(O)cc1)NCC(O)c1cc(O)cc(O)c1 [(S,S')-fenoterol] | – | – | – | 55 µM |
